Test [1] concerns adult subjects with relapsing MS. The test is described as follows: FSIQ-RMS weekly symptoms score, change from baseline to Week 108. The class given is in vivo, human. From the text:
In some embodiments, the patient-reported outcome questionnaire is the Fatigue Symptoms and Impact Questionnaire—Relapsing Multiple Sclerosis (FSIQ-RMS) (available from Mapi Research Trust). The FSIQ-RMS is an MS specific 20-item PRO measure that comprises 2 domains: one measuring MS symptoms and one measuring MS-related impacts. See Hudgens S, et al., Development and Validation of the FSIQ-RMS: A New Patient-Reported Questionnaire to Assess Symptoms and Impacts of Fatigue in Relapsing Multiple Sclerosis. Value Health. 2019 April; 22 (4): 453-466. doi: 10.1016/j.jval.2018.11.007. Epub 2019 Feb. 21. PubMed PMID: 30975397. With 7 symptom items and 13 impact items (in 3 impacts subdomains: physical, cognitive and emotional, and coping), the FSIQ-RMS is a comprehensive, valid, and reliable measure of fatigue-related symptoms and impacts in RMS patients. FIG. 2B depicts a conceptual framework for the FSIQ-RMS.
In some embodiments, the patient-reported outcome questionnaire is the symptom domain of the FSIQ-RMS. The FSIQ-RMS symptom domain (FSIQ-RMS-S) consists of seven items assessing fatigue-related symptoms with a recall period of 24 hours measured on an 11-point numeric rating scale; the standardized symptom domain score ranges from 0 to 100 with a higher score indicating greater fatigue. This domain (i.e., section 1 of the questionnaire) is completed on 7 consecutive days.
The patient-reported outcome questionnaire used for the below Examples is the Fatigue Symptoms and Impact Questionnaire-Relapsing Multiple Sclerosis (FSIQ-RMS). The FSIQ-RMS is an MS specific 20-item PRO measure that comprises 2 domains: one measuring MS symptoms (7 items) and one measuring MS-related impacts (13 items). The 7 symptom items and 13 impact items (in 3 impacts subdomains: physical, cognitive and emotional, and coping) are presented below.
For the MS symptoms domain, the FSIQ-RMS asks about a patient's fatigue-related symptoms of relapsing MS over the past 24 hours while doing routine daily activities (e.g., housework, yard work, shopping, working, etc.) for Items 1-6 or while at rest (e.g., reading a book, watching TV, etc.) for Item 7. Patients are asked to select a response on a scale of Oto 10 that best describes their experience and are asked to not skip any questions, with no answers being right or wrong.
Secondary efficacy variables and testing strategy: Four secondary efficacy endpoints were analyzed as per the statistical testing strategy outlined in FIG. 1. • Change from baseline to Week 108 in fatigue-related symptoms as measured by the symptoms domain of the FSIQ-RMS patient-reported outcome [Fatigue] • Cumulative number of combined unique active lesions from baseline to Week 108 on brain MRI [CUALs] • Time to first 12-week confirmed disability accumulation (CDA) from baseline to EOS on Expanded Disability Status Scale (EDSS) [12-week CDA] • Time to first 24-week CDA from baseline to EOS on EDSS [24-week CDA]
The FSIQ-RMS symptom domain (FSIQ-RMS-S) consists of seven items assessing fatigue-related symptoms with a recall period of 24 hours measured on an 11-point numeric rating scale; the standardized symptom domain score ranges from 0 to 100 with a higher score indicating greater fatigue. This domain (i.e., section 1 of the questionnaire) is completed on 7 consecutive days.
FSIQ-RMS was completed during the pre-randomization period, at Visits 6, 7, 10, and 12 (Weeks 12, 24, 60, 84), 14 (EOT), and at unscheduled visits due to relapses (R1, R2, etc.) or other unscheduled visits (U1, U2, etc.) as described below. If applicable, FSIQ-RMS was performed at the corresponding visits in the PTOP.
The completion of the FSIQ-RMS during the pre-randomization period was done as follows: At Visit 1 (Screening), subjects who appear eligible based on the assessments made during this visit (but prior to the results from the laboratory assessments are received) were provided with the electronic device containing the FSIQ-RMS. […]

Test [2] concerns Patients (18-55 years) with RMS. The test is described as follows: Pre-specified MRI endpoints (Example 2). It counts as in vivo, human. The note with it: PON 20 mg vs TER 14 mg; baseline to week 108. The method, then: In this study, prespecified MRI-based endpoints and no evidence of disease activity (NEDA) status is evaluated.
Patients (18-55 years) with RMS (expanded disability status scale scores: 0-5.5) were randomized (1:1) to receive ponesimod (PON) 20 mg or teriflunomide (TER) 14 mg for 108 weeks. MRI assessments were: volume of T2 lesions; mean number of new gadolinium-enhancing (Gd+) T1 lesions and new/enlarging T2 lesions; and absence of active MRI lesions at week 108. NEDA-3 status (absence of confirmed relapse, Gd+T1 lesions and new/enlarging T2 lesions on annual MRIs, and 12-week confirmed disability accumulation) was evaluated from baseline to week 108.

[3] abbreviates: patients with no prior DMT treatment within about two years, FSIQ-RMS weekly symptoms score.
Where [4] appears, read: patients without Gd+T1 lesions at baseline, FSIQ-RMS weekly symptoms score.

`CCC/N=C1\S/C(=C\c2ccc(OC[C@H](O)CO)c(Cl)c2)C(=O)N1c1ccccc1C` [Ponesimod, (R)-5-[3-chloro-4-(2,3-dihydroxy-propoxy)-benz[Z]ylidene]-2-([Z]-propylimino)-3-o-tolyl-thiazolidin-4-one]: the “Change from baseline to Week 108 in FSIQ-RMS weekly symptoms score (mean)” value in test [1] (MMRM, Full Analysis Set, increase = worsening, ponesimod 20 mg, teriflunomide 14 mg) is −0.01. Further, the “Change From Baseline to Week 108: Stable or Improved” value in test [1] (patients with baseline fatigue below the median, FSIQ-RMS weekly symptoms score) was ~65%. Further, in test [1] (setting [3]), the “Change From Baseline to Week 108: Stable (−6.3 < x < +6.3)” value was found to be 44.0% and the “Change From Baseline to Week 108: Stable or Improved” value is “about 75%”. In test [1] (setting [4]), the “Change From Baseline to Week 108: Improved (<−6.3)” value is 30.0% and the “Change From Baseline to Week 108: Stable or Improved” value was “about 68%”. Also, in test [2], the “New Gd+T1 lesions per scan, rate ratio [RR]” value worked out at 0.42 and the “New/enlarging T2 lesions per year, RR” value came to 0.44.
